# Experimental data reported in patent US4120953A, “Novel 2,2', 2"-[s-phenenyltris(sulfonylimino)tris]-[2-deoxy-α-D-glucopyranose] , dodecakis (H-sulfate) compounds and their salts” (American Cyanamid Company, priority 1977, dated 1978).
# Counter-ions that a name gives are not always drawn.
# Legend:
# [1] = test system: shunt pathway activated by cobra venom factor; assay: Test, Code 036 (C-Shunt inhibitor); format: cell-based; conditions: serial two-fold dilution assay; lysis of fragile human erythrocytes in autologous serum
# [2] = test system: late components of human complement (C3-C9); assay: Test, Code 035 (C3-C9 inhibitor); format: biochemical; set-up: key: N = negative; conditions: serial two-fold dilution assay; protection of EAC 142 from lysis by human C3-C9
# Description: (§1) This test measures the ability of activated human C1 to destroy fluid phase human C2 in the presence of C4 and appropriate dilutions of the test compound. An active inhibitor protects C2 from C1 and C4; (ii) Test, Code 035 (C3-C9 inhibitor) - This test determines the ability of the late components of human complement (C3-C9) to lyse EAC 142 in the presence of appropriate dilutions of the test compound. […] The lesion is measured in terms of diameter, edema and hemorrhage and the extent to which a combined index of these is inhibited by prior intraperitoneal injection of the test compound at […] is then reported, unless otherwise stated; (v) Forssman Shock Test -- Lethal shock is produced in guinea pigs by an i.v. injection of anti-Forssman antiserum and the harmonic mean death time of treated guinea pigs is compared with that of simultaneous controls; (vi) Complement Level Reduction Test -- In this test, the above dosed guinea pigs, or others, are bled for serum and the complement level is determined in undiluted serum by the capillary tube method of U.S. Pat. No. 3,876,376 and compared to undosed control guinea pigs; and (vii) Cap 50 Test -- Here, appropriate amounts of the test compound are added to a pool of guinea pig serum in vitro, after which the undiluted serum capillary tube assay referred to above is run. […]
# activated human C1 = activated human C1 (Homo sapiens, UniProt P09871); assay: Test, Code 026 (C1 inhibitor); format: biochemical; conditions: serial two-fold dilution assay; higher well numbers indicate higher activity; protection of human C2 from C1 and C4
# Description: as §1
compound,measurement,setting,value
"O=S(=O)(O)OC[C@H]1O[C@H](OS(=O)(=O)O)[C@H](NS(=O)(=O)c2cc(S(=O)(=O)N[C@H]3[C@@H](OS(=O)(=O)O)O[C@H](COS(=O)(=O)O)[C@@H](OS(=O)(=O)O)[C@@H]3OS(=O)(=O)O)cc(S(=O)(=O)N[C@H]3[C@@H](OS(=O)(=O)O)O[C@H](COS(=O)(=O)O)[C@@H](OS(=O)(=O)O)[C@@H]3OS(=O)(=O)O)c2)[C@@H](OS(=O)(=O)O)[C@@H]1OS(=O)(=O)O [2,2',2""-[ s-Phenenyltris(sulfonylimino)]-tris[2-deoxy-α-D-gl] [2,2',2""-[s-Phenenyltris(sulfonylimino)]tris[2-deoxy-α-D-glucopyranose], dodecakis (H-sulfate) dodecasalt with trimethylamine]",In Vitro Activity Shunt Inhibition 036 Wells,[1],+2 Wells
"O=S(=O)(O)OC[C@H]1O[C@H](OS(=O)(=O)O)[C@H](NS(=O)(=O)c2cc(S(=O)(=O)N[C@H]3[C@@H](OS(=O)(=O)O)O[C@H](COS(=O)(=O)O)[C@@H](OS(=O)(=O)O)[C@@H]3OS(=O)(=O)O)cc(S(=O)(=O)N[C@H]3[C@@H](OS(=O)(=O)O)O[C@H](COS(=O)(=O)O)[C@@H](OS(=O)(=O)O)[C@@H]3OS(=O)(=O)O)c2)[C@@H](OS(=O)(=O)O)[C@@H]1OS(=O)(=O)O [2,2',2""-[s-Phenenyltris(sulfonylimino)]-tris[2-deoxy-α-D-glu] [2,2',2""-[s-Phenenyltris(sulfonylimino)]tris[2-deoxy-α-D-glucopyranose], dodecakis (H-sulfate) dodecasodium salt]",In Vitro Activity Shunt Inhibition 036 Wells,[1],+1 Wells
"O=S(=O)(O)OC[C@H]1O[C@H](OS(=O)(=O)O)[C@H](NS(=O)(=O)c2cc(S(=O)(=O)N[C@H]3[C@@H](OS(=O)(=O)O)O[C@H](COS(=O)(=O)O)[C@@H](OS(=O)(=O)O)[C@@H]3OS(=O)(=O)O)cc(S(=O)(=O)N[C@H]3[C@@H](OS(=O)(=O)O)O[C@H](COS(=O)(=O)O)[C@@H](OS(=O)(=O)O)[C@@H]3OS(=O)(=O)O)c2)[C@@H](OS(=O)(=O)O)[C@@H]1OS(=O)(=O)O [2,2',2""-[s-Phenenyltris(sulfonylimino)]tris[2-deoxy-α-D-glucopyranose], dodecakis (H-sulfate) dodecasalt with trimethylamine]",In Vitro Activity C-Late 035 Wells,[2],N
same,In Vitro Activity C1 026 Wells,activated human C1,+7 Wells
